Results from the NIST ThermoML archive (doi:10.1016/j.jct.2012.10.008).
Numbers after ± are expanded uncertainties.

Key:
[1] = refractive index (Na D-line) (dimensionless); settings: 298.15 K; 101.33 kPa; Liquid; Standard Abbe refractometry
[2] = Liquid; for viscosity: Falling or rolling sphere viscometry; for mass density: Vibrating tube method
[3] = xn = mol fraction of the nth substance listed; settings: 101 kPa, Liquid, x2 = 0; for viscosity: Falling or rolling sphere viscometry; for mass density: Vibrating tube method

SMILES	refractive index [1]	viscosity ([2]; 293.15 K, 101.33 kPa) [mPa·s]	mass density ([2]; 293.15 K, 101.33 kPa) [kg/m3]	viscosity ([2]; 298.15 K, 101.33 kPa) [mPa·s]	mass density ([2]; 298.15 K, 101.33 kPa) [kg/m3]	viscosity ([2]; 303.15 K, 101.33 kPa) [mPa·s]	mass density ([2]; 303.15 K, 101.33 kPa) [kg/m3]	viscosity ([2]; 308.15 K, 101.33 kPa) [mPa·s]	mass density ([2]; 308.15 K, 101.33 kPa) [kg/m3]	viscosity ([2]; 313.15 K, 101.33 kPa) [mPa·s]	mass density ([2]; 313.15 K, 101.33 kPa) [kg/m3]	viscosity ([3]; 293.15 K) [mPa·s]	mass density ([3]; 293.15 K) [kg/m3]	viscosity ([3]; 298.15 K) [mPa·s]	mass density ([3]; 298.15 K) [kg/m3]	viscosity ([3]; 303.15 K) [mPa·s]	mass density ([3]; 303.15 K) [kg/m3]	viscosity ([3]; 308.15 K) [mPa·s]	mass density ([3]; 308.15 K) [kg/m3]	viscosity ([3]; 313.15 K) [mPa·s]	further results
CCCCO [butan-1-ol]	1.3972 ± 0.0004	2.942 ± 0.023	809.76 ± 0.14	2.572 ± 0.02	805.96 ± 0.14	2.265 ± 0.018	802.11 ± 0.15	2.002 ± 0.016	798.18 ± 0.15	1.787 ± 0.014	794.39 ± 0.15	–	–	–	–	–	–	–	–	–	mass density ([2]; 298.15 K, 101 kPa): 805.94 ± 0.14 kg/m3
CCCCO [butan-1-ol] + CCCC[NH3+].O=[N+]([O-])[O-]	–	–	–	–	–	–	–	–	–	–	–	2.942 ± 0.023	809.76 ± 0.14	2.572 ± 0.02	805.94 ± 0.14	2.265 ± 0.018	802.11 ± 0.14	2.002 ± 0.016	798.18 ± 0.15	1.787 ± 0.014	mass density ([3]; 313.15 K): 794.39 ± 0.15 kg/m3
CCO [ethanol]	1.3594 ± 0.0004	1.218 ± 0.01	789.5 ± 0.15	1.134 ± 0.009	785.39 ± 0.15	1.015 ± 0.008	780.69 ± 0.15	0.91 ± 0.008	776.35 ± 0.15	0.836 ± 0.007	772.11 ± 0.15	–	–	–	–	–	–	–	–	–	viscosity ([2]; 303.15 K, 101 kPa): 1.01 ± 0.008 mPa·s; viscosity ([2]; 308.15 K, 101 kPa): 0.907 ± 0.008 mPa·s
CCO [ethanol] + CCCC[NH3+].O=[N+]([O-])[O-]	–	–	–	–	–	–	–	–	–	–	–	1.218 ± 0.01	789.5 ± 0.15	1.134 ± 0.009	785.39 ± 0.15	1.01 ± 0.008	780.69 ± 0.15	0.907 ± 0.008	776.35 ± 0.15	0.836 ± 0.007	mass density ([3]; 313.15 K): 772.11 ± 0.15 kg/m3
CO [methanol]	1.3264 ± 0.0004	0.588 ± 0.006	791.23 ± 0.15	0.552 ± 0.006	786.54 ± 0.15	0.516 ± 0.006	781.81 ± 0.15	0.486 ± 0.005	777.05 ± 0.15	0.461 ± 0.005	772.25 ± 0.15	–	–	–	–	–	–	–	–	–	–
CO [methanol] + CCCC[NH3+].O=[N+]([O-])[O-]	–	–	–	–	–	–	–	–	–	–	–	0.588 ± 0.006	791.23 ± 0.15	0.552 ± 0.006	786.54 ± 0.15	0.516 ± 0.006	781.81 ± 0.15	0.486 ± 0.005	777.05 ± 0.15	0.461 ± 0.005	mass density ([3]; 313.15 K): 772.25 ± 0.15 kg/m3
CCCC[NH3+].O=[N+]([O-])[O-] [n-butylammonium nitrate]	1.4458 ± 0.0011	111.35 ± 4.1	1104.68 ± 6.6	89.95 ± 2.9	1101.52 ± 6.6	73.04 ± 2.1	1098.38 ± 6.5	60.25 ± 1.6	1095.26 ± 6.5	50.12 ± 1.3	1092.17 ± 6.5	–	–	–	–	–	–	–	–	–	–
CCCO [propan-1-ol]	1.3833 ± 0.0004	2.208 ± 0.017	803.56 ± 0.15	1.975 ± 0.016	799.58 ± 0.15	1.738 ± 0.014	795.59 ± 0.15	1.549 ± 0.012	791.48 ± 0.15	1.382 ± 0.011	787.36 ± 0.15	–	–	–	–	–	–	–	–	–	–
CCCO [propan-1-ol] + CCCC[NH3+].O=[N+]([O-])[O-]	–	–	–	–	–	–	–	–	–	–	–	2.208 ± 0.017	803.56 ± 0.14	1.975 ± 0.016	799.58 ± 0.15	1.738 ± 0.014	795.59 ± 0.15	1.549 ± 0.012	791.48 ± 0.15	1.382 ± 0.011	mass density ([3]; 313.15 K): 787.36 ± 0.15 kg/m3
